Measurements from patent US20250282770A1, “BIOLUMINESCENT PROBES TO TRACK STEM CELLS IN VIVO” (THE BOARD OF TRUSTEES OF THE UNIVERSITY OF ILLINOIS, priority 2024, published 2025).

Key:
[1] = Evaluation of acetal response to 1 M HCl; type: physicochemical; conditions: 100 μM; 1 M HCl for one hour; ALDH1A1 0.4 μM; compared among 9, 10, 11
Method: Evaluation of Acetal Response to 1 M HCl. To identify the most robust turn-on to be utilized for this study, compounds 9, 10, and 11 were tested for their ability to be deprotected under acidic conditions. Each acetal was dissolved in DMSO and subjected to equal-volume 1 M HCl and incubated at room temperature for 60 minutes. After this time, each solution was neutralized with 1 M NaOH and diluted to a concentration of 1 mM with PBS. In a black 96-well plate, PBS, NAD^+ (2.5 mM), ALDH1A1 (0.4 μM), and either compound 9, 10 or 11 (100 μM) were added. After 5 minutes, each well was treated with ATP-MgSO4 (45 μL, prepared by mixing 17.78 mM ATP-Mg and 35.56 mM MgSO4 in a 1:1 ratio in PBS buffer) and luciferase (5 μL, 1 mg/mL in PBS containing 10% glycerol) to initiate bioluminescence production. Light was collected immediately after mixing, and the signal enhancement was determined relative to control wells containing no probe or enzymes. The total volume of each well was 200 μL (PBS (pH 7.4) with 0.5% DMSO). All data reported as the mean±standard deviation (n=4).

4T1-Luc tumors = experiment: Bioluminescence imaging of heterotopic breast cancer model with AlDeLuc; type: in vivo, BALB/c mice; conditions: 0.55 mg/kg retro-orbital
Method: Generation of 4T1-Luc Breast Cancer Model. Female or male BALB/c mice (˜6 weeks old) were inoculated with 4T1-Luc cells (50 μL of 1×10^6 cells in 1:1 v/v serum-free RPMI 1640 media and Matrigel) via subcutaneous injections into each flank. Tumor volumes were measured using the caliper method every three days. Body weight was measured daily over the course of the experiment. After two weeks, the tumor was in the 200 to 400 mm^3 range.
Bioluminescence Imaging of a Heterotopic Breast Cancer Model with AlDeLuc. BALB/c mice bearing 4T1-Luc tumors were anesthetized using isoflurane (1-3% for maintenance; up to 5% for induction) in oxygen from a precision vaporizer. After testing to ensure animals are fully under anesthesia, each mouse was administered a control solution of 1:19 v/v DMSO:PBS via retro-orbital injection. After 40 minutes, the mice were imaged on the IVIS imaging system. Luminescence was collected using an open filter set. ROIs were drawn around both the left and right tumors, and the intensity was calculated using the Living Image Analysis software.
The following day the mice were anesthetized, and administered AlDeLuc (0.55 mg/kg, 1:19 v/v DMSO:PBS). […] Luminescence was collected using an open filter set. ROIs were drawn around both the left and right tumors, and the intensity was calculated using the Living Image Analysis software.

[2] = Stability of AlDeLuc at acidic, neutral and alkaline pHs; type: physicochemical; conditions: 2 μM, then ALDH1A1 and luciferase
Method: Stability of AlDeLuc at Acidic, Neutral and Alkaline pHs. The stability of AlDeLuc (2 μM) to acidic, neutral and alkaline conditions were investigated in a black 96-well plate and monitored using the IVIS imaging system. AlDeLuc was incubated in 1 M HCl (acidic), 1 M NaCl (neutral, pH=7), or 1 M NaOH (alkaline) for one hour, neutralized, and diluted with 0.1 M potassium phosphate buffer (pH 7.4). To the black well-plate was added PBS (pH 7.4), NAD^+ (1 mM), ALDH1A1 (0.4 μM), and either the acidic-, neutral-, or alkaline-treated AlDeLuc. Immediately after, each well was treated with ATP-MgSO4 (45 μL, prepared by mixing 17.78 mM ATP-Mg and 35.56 mM MgSO4 in a 1:1 ratio in PBS buffer) and luciferase (5 μL, 1 mg/mL in PBS containing 10% glycerol) to initiate bioluminescence production. Light was collected immediately after mixing, and the signal enhancement was determined relative to control wells not treated with AlDeLuc. The total volume of each well was 200 μL (PBS (pH 7.4) with 0.2% DMSO). All data reported as the mean±standard deviation.

CCN(CC)c1ccc2nc(C3=N[C@@H](C(OC)OC)CS3)sc2c1 [AlDeLuc, (S)-2-(4-(dimethoxymethyl)-4,5-dihydrothiazol-2-yl)-N,N-diethylbenzo[d]thiazol-6-amine]
acid resistance of acetal (bioluminescence emission after HCl, neutralization, ALDH1A1 and luciferase) [1]: most acid-resistant | time at which tumor bioluminescence signal plateaued (4T1-Luc tumors; 4T1-Luc tumors): 40 min | signal at the 24-hour mark (4T1-Luc tumors; 24 hours after administration): complete clearance | bioluminescence (acetal unmasking) ([2]; 1 M NaCl (neutral) one hour): no bioluminescence | bioluminescence (acetal unmasking) ([2]; 1 M NaOH (alkaline) one hour): no bioluminescence
